What all share (format): cell-based
Assay [1] relates to Mannheimia haemolytica MH 6357 (M7/2, reference strain, cattle infection strain). The experiment in a line: MIC, broth-microdilution (CLSI VET01-A4), strain MH 6357. The note with it: Mannheimia haemolytica strain MH 6357, broth-microdilution; unit assumed. The method, boiled down: (§1)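 Broth microdilution per CLSI VET01-A4, using trays with a doubling dilution series of compound; results interpreted per CLSI VET01-S3. MIC taken as lowest concentration with no turbidity visible to the unaided eye.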

For assay [2], the system named is Mannheimia haemolytica MH 10720 (154, BRD field isolate). The experiment in a line: MIC, broth-microdilution (CLSI VET01-A4), strain MH 10720. The note with it: Mannheimia haemolytica strain MH 10720, broth-microdilution; unit assumed. The method, boiled down:
as §1

Assay [3] concerns Pasteurella multocida PM 12080 (IV102277-0093, BRD field isolate). Nature of the assay: MIC, broth-microdilution (CLSI VET01-A4), strain PM 12080. The following applies: Pasteurella multocida strain PM 12080, broth-microdilution; unit assumed. The method, boiled down: as §1
The subject of assay [4] is Mannheimia haemolytica MH 13065 (XB0446-6003.9, BRD field isolate). Nature of the assay: MIC, broth-microdilution (CLSI VET01-A4), strain MH 13065. The following applies: Mannheimia haemolytica strain MH 13065, broth-microdilution; unit assumed. The procedure, abridged:
as §1
(In general: In broth dilution the organism is exposed to a series of concentrations in liquid medium.)

For assay [5], the system named is Mannheimia haemolytica MH 13093 (XB0472-6014.1, BRD field isolate). Nature of the assay: MIC, broth-microdilution (CLSI VET01-A4), strain MH 13093. The following applies: Mannheimia haemolytica strain MH 13093, broth-microdilution; unit assumed. The procedure, abridged:
as §1

For assay [6], the system named is Mannheimia haemolytica MH 12587 (1071, BRD field isolate, macrolide-resistance: erm+, E+). The experiment in a line: MIC, broth-microdilution (CLSI VET01-A4), strain MH 12587. The following applies: Mannheimia haemolytica strain MH 12587, broth-microdilution; unit assumed. The method, boiled down: as §1
The subject of assay [7] is Pasteurella multocida PM 10775 (080130003051, BRD field isolate). Nature of the assay: MIC, broth-microdilution (CLSI VET01-A4), strain PM 10775. The note with it: Pasteurella multocida strain PM 10775, broth-microdilution; unit assumed. The procedure, abridged:
as §1

In assay [8] the test system is Pasteurella multocida PM 6391 (ATCC 43137, reference strain). The experiment in a line: MIC, broth-microdilution (CLSI VET01-A4), strain PM 6391. The note with it: Pasteurella multocida strain PM 6391, broth-microdilution; unit assumed. As to the method: For example, representative compounds were tested against ***, Mannheimia haemolytica and Pasteurella multocida, using the conventional broth-dilution assay.
The Minimum inhibitory concentrations (MIC) of compounds according to the invention for a number of veterinary bacterial pathogens were determined by the broth-microdilution method according to CLSI document VET01-A4.
Microdilution trays containing a doubling dilution series of the test compound were used for the tests. The MIC results were interpreted according to the CLSI documents VET01-S3. The lowest concentration of compound at which no visible growth (i.e. no turbidity) detected by the unaided eye was recorded as the MIC.

Assay [9] relates to Mannheimia haemolytica MH 6374 (ATCC 33396, reference strain). Nature of the assay: MIC, broth-microdilution (CLSI VET01-A4), strain MH 6374. The following applies: Mannheimia haemolytica strain MH 6374, broth-microdilution; unit assumed. The procedure, abridged:
as §1

Assay [10] relates to Pasteurella multocida PM 6267 (P 2225 (L386), reference strain, mouse infection strain). The experiment in a line: MIC, broth-microdilution (CLSI VET01-A4), strain PM 6267. The following applies: Pasteurella multocida strain PM 6267, broth-microdilution; unit assumed. The procedure, abridged: as §1

≈ marks a conversion by molar mass, not a printed value.

On to `CC(C)([C@H](NC(=O)c1ccc(C#Cc2ccc(CNCc3ccco3)cc2)cc1)C(=O)NO)S(C)(=O)=O` [C.270], for which, in assay [1], the MIC MH 6357 turned out to be 0.8 µg/mL (≈ 1.53 µM). Further, the MIC MH 10720 in assay [2] was at most 0.1 µg/mL. In addition, the MIC PM 12080 in assay [3] was at most 0.1 µg/mL. Also, in assay [4], the MIC MH 13065 stood at 0.2 µg/mL (≈ 0.382 µM). The compound further displayed an MIC MH 13093 in [5] of 0.4 µg/mL (≈ 0.764 µM). Moreover, in [6], the MIC MH 12587 was found to be 0.8 µg/mL (≈ 1.53 µM). Further, the MIC PM 10775 in assay [7] was at most 0.1 µg/mL. Moreover, the MIC PM 6391 in assay [8] was at most 0.1 µg/mL. Besides, the MIC MH 6374 in assay [9] came out at 0.2 µg/mL (≈ 0.382 µM). The compound also had an MIC PM 6267 in [10] of at most 0.1 µg/mL.

As to `CC(C)([C@H](NC(=O)c1ccc(C#Cc2ccc(CNCc3nccs3)cc2)cc1)C(=O)NO)S(C)(=O)=O` [C.274], the MIC MH 6357 in [1] turned out to be 0.2 µg/mL (≈ 0.37 µM). In assay [2], the MIC MH 10720 is at most 0.1 µg/mL. This compound came in with an MIC PM 12080 in assay [3] of at most 0.1 µg/mL. This compound displayed an MIC MH 13065 in assay [4] of 0.2 µg/mL (≈ 0.37 µM). The same compound showed an MIC MH 13093 in assay [5] of 0.2 µg/mL (≈ 0.37 µM). The same compound registered an MIC MH 12587 in [6] of 0.4 µg/mL (≈ 0.74 µM). This compound gave an MIC PM 10775 in assay [7] of at most 0.1 µg/mL. Moreover, the MIC PM 6391 in [8] was at most 0.1 µg/mL. In addition, the MIC MH 6374 in [9] was determined as 0.2 µg/mL (≈ 0.37 µM). For the same compound, in assay [10], the MIC PM 6267 was at most 0.1 µg/mL.

Turning to `COCCNCc1ccc(C#Cc2ccc(C(=O)N[C@H](C(=O)NO)C(C)(C)O)cc2)s1` [C.292], the MIC MH 6357 in assay [1] was found to be 0.4 µg/mL (≈ 0.898 µM). In addition, in assay [2], the MIC MH 10720 is at most 0.1 µg/mL. This compound had an MIC PM 12080 in assay [3] of 0.4 µg/mL (≈ 0.898 µM). In addition, the MIC MH 13065 in [4] was determined as 0.8 µg/mL (≈ 1.8 µM). Moreover, in assay [5], the MIC MH 13093 was determined as 1.6 µg/mL (≈ 3.59 µM). For the same compound, in assay [6], the MIC MH 12587 was 1.6 µg/mL (≈ 3.59 µM). In [7], this compound registered an MIC PM 10775 of at most 0.1 µg/mL. Moreover, the MIC PM 6391 in assay [8] came to 0.8 µg/mL (≈ 1.8 µM). Also, the MIC MH 6374 in assay [9] turned out to be 0.8 µg/mL (≈ 1.8 µM). The MIC PM 6267 in [10] came out at 1.6 µg/mL (≈ 3.59 µM).

In [1], `CC(C)([C@H](NC(=O)c1ccc(C#Cc2ccc(CNC3CC3)s2)cc1)C(=O)NO)S(C)(=O)=O` [C.311] returned an MIC MH 6357 of 0.2 µg/mL (≈ 0.408 µM). In [2], this compound returned an MIC MH 10720 of at most 0.1 µg/mL. In assay [3], this compound showed an MIC PM 12080 of at most 0.1 µg/mL. In [4], this compound returned an MIC MH 13065 of at most 0.1 µg/mL. The MIC MH 13093 in assay [5] came to 0.4 µg/mL (≈ 0.817 µM). This compound also showed an MIC MH 12587 in assay [6] of 0.4 µg/mL (≈ 0.817 µM). The compound further came in with an MIC PM 10775 in assay [7] of at most 0.1 µg/mL. The compound also had an MIC PM 6391 in [8] of at most 0.1 µg/mL. The MIC MH 6374 in assay [9] was at most 0.1 µg/mL. The MIC PM 6267 in assay [10] came to 0.4 µg/mL (≈ 0.817 µM).

In turn, `COCCNCc1ccc(C#Cc2ccc(C(=O)N[C@H](C(=O)NO)C(C)(C)S(C)(=O)=O)cc2)s1` [C.313] yielded an MIC MH 6357 in [1] of 0.4 µg/mL (≈ 0.788 µM). In addition, the MIC MH 10720 in assay [2] was at most 0.1 µg/mL. The compound further yielded an MIC PM 12080 in assay [3] of at most 0.1 µg/mL. In addition, the MIC MH 13065 in assay [4] was 0.4 µg/mL (≈ 0.788 µM). In addition, the MIC MH 13093 in assay [5] was 0.8 µg/mL (≈ 1.58 µM). The MIC MH 12587 in assay [6] amounted to 1.6 µg/mL (≈ 3.15 µM). Also, the MIC PM 10775 in assay [7] is at most 0.1 µg/mL. This compound also yielded an MIC PM 6391 in assay [8] of at most 0.1 µg/mL. In assay [9], the MIC MH 6374 is 1.6 µg/mL (≈ 3.15 µM). The same compound yielded an MIC PM 6267 in assay [10] of 0.2 µg/mL (≈ 0.394 µM).

Regarding `CC(C)([C@H](NC(=O)c1ccc(C#Cc2ccc(CNCc3cccnc3)s2)cc1)C(=O)NO)S(C)(=O)=O` [C.319], the MIC MH 6357 in [1] amounted to 0.2 µg/mL (≈ 0.37 µM). Further, the MIC MH 10720 in assay [2] was at most 0.1 µg/mL. Besides, the MIC PM 12080 in assay [3] was at most 0.1 µg/mL. Also, the MIC MH 13065 in assay [4] was found to be 0.4 µg/mL (≈ 0.74 µM). In [5], the MIC MH 13093 was found to be 0.4 µg/mL (≈ 0.74 µM). Further, the MIC MH 12587 in assay [6] was 0.8 µg/mL (≈ 1.48 µM). The MIC PM 10775 in [7] was at most 0.1 µg/mL. This compound returned an MIC PM 6391 in [8] of at most 0.1 µg/mL. For the same compound, the MIC MH 6374 in [9] was 0.2 µg/mL (≈ 0.37 µM). In assay [10], this compound registered an MIC PM 6267 of 0.2 µg/mL (≈ 0.37 µM).

As to `CC(C)(C)CNCc1ccc(C#Cc2ccc(C(=O)N[C@@H](CO)C(=O)NO)cc2)cc1` [Compound 136], in [1], the MIC MH 6357 was 3.1 µg/mL (≈ 7.32 µM). In assay [2], this compound gave an MIC MH 10720 of 1.6 µg/mL (≈ 3.78 µM). The compound further showed an MIC PM 12080 in assay [3] of 0.8 µg/mL (≈ 1.89 µM). Moreover, the MIC MH 13065 in assay [4] stood at 12.5 µg/mL (≈ 29.5 µM). In [5], this compound registered an MIC MH 13093 of 25 µg/mL (≈ 59 µM). Also, in assay [6], the MIC MH 12587 was 25 µg/mL (≈ 59 µM). Further, the MIC PM 10775 in assay [7] was at most 0.1 µg/mL. The same compound came in with an MIC PM 6391 in assay [8] of 0.8 µg/mL (≈ 1.89 µM). The MIC MH 6374 in assay [9] came out at 12.5 µg/mL (≈ 29.5 µM). In assay [10], the MIC PM 6267 worked out at 0.4 µg/mL (≈ 0.944 µM).

In assay [1], `CC[C@H](C)[C@H](NC(=O)c1ccc(C#Cc2ccc(CNC)cc2)cc1)C(=O)NO` [Compound 194] displayed an MIC MH 6357 of 6.3 µg/mL (≈ 16 µM). The compound further yielded an MIC PM 12080 in [3] of 1.6 µg/mL (≈ 4.07 µM). The compound further returned an MIC MH 13065 in assay [4] of 6.3 µg/mL (≈ 16 µM). Besides, the MIC MH 13093 in assay [5] was determined as 12.5 µg/mL (≈ 31.8 µM). In [6], this compound had an MIC MH 12587 of 25 µg/mL (≈ 63.5 µM). In addition, the MIC PM 10775 in assay [7] is at most 0.1 µg/mL. The compound also came in with an MIC PM 6391 in assay [8] of 1.6 µg/mL (≈ 4.07 µM). The compound also showed an MIC MH 6374 in assay [9] of 25 µg/mL (≈ 63.5 µM). The MIC PM 6267 in assay [10] stood at 0.4 µg/mL (≈ 1.02 µM).

(Values after patent US11034650B2, “Compounds useful for treating a Mannheimia haemolytica or Histophilus somni infection” (Intervet Inc., priority 2016, dated 2021).)
